Source: patent publication US20240409585A1, “MACROCYCLIC IMMUNOMODULATORS” (priority 2021, published 2024)
Bridge positions count the residues as written; N and C are the ends. Square brackets hold non-standard residues; d marks the D form. Peptide text beside a SMILES is read from it. * marks the point of attachment. ξ: configuration not given here. Phe(2,4-Cl2) = N[C@@H](Cc1ccc(Cl)cc1Cl)C(=O)O; Bip = N[C@@H](Cc1ccc(-c2ccccc2)cc1)C(=O)O; Phe(3-CN) = N#Cc1cccc(C[C@H](N)C(=O)O)c1; Phe(3-OMe) = COc1cccc(C[C@H](N)C(=O)O)c1; Phe(3-Me) = Cc1cccc(C[C@H](N)C(=O)O)c1; Val(3-OH) = CC(C)(O)[C@H](N)C(=O)O; 3Pal = N[C@@H](Cc1cccnc1)C(=O)O; 4Pal = N[C@@H](Cc1ccncc1)C(=O)O; Cha = N[C@@H](CC1CCCCC1)C(=O)O; Carboxymethyl = O=C(O)C*; NMeA = CN[C@@H](C)C(=O)O; Pra = C#CC[C@H](N)C(=O)O; Dab = NCC[C@H](N)C(=O)O; Dap = NC[C@H](N)C(=O)O; ξC = NC(CS)C(=O)O

Biological target: T1, PE-labeled human PD-L1-Ig binding to Jurkat cell line over-expressing human PD-1 (Jurkat-PD-1) (Homo sapiens, UniProt Q15116)
T1 construct: expressed in transfected cells; host or cells: Jurkat
Assay: Jurkat-PD-1 Cell Binding High-Content Screening Assay (CBA): Method 1
Settings: Jurkat-hPD-1 cells, PE-labeled PD-L1-Ig 20 nM final; read-out: Jurkat HPDL1 PD1 IC50 (uM) (Method 1)

T1 sequence (Q15116 25-288): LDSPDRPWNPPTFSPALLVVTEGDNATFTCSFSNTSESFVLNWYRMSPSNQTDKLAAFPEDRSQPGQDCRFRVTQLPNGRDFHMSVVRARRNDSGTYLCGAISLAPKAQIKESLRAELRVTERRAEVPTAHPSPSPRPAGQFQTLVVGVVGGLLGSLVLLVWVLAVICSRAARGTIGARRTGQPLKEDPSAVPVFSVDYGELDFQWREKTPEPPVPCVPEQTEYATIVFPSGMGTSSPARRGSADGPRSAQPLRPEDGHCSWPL

Row | SMILES | IC50 [µM]
1 | COc1cccc(C[C@@H]2NC(=O)[C@H](CC(=O)O)NC(=O)[C@H](Cc3ccc(O)cc3)NC(=O)[C@H](Cc3ccccc3)NC(=O)CSC[C@@H](C(=O)N[C@@H](C)C(N)=O)NC(=O)[C@H](CO)NC(=O)[C@H](C(C)C)NC(=O)[C@H](CC(C)C)NC(=O)[C@H](CC(N)=O)NC(=O)[C@@H](C)NC(=O)[C@H](C)N(C)C(=O)[C@H](C(C)C)NC(=O)[C@H](Cc3ccc(-c4ccccc4)cc3)NC(=O)[C@H](CC(C)C)NC2=O)c1 [Compound 1739] ({CH2CO}-FYD[Phe(3-OMe)]L[Bip]V[NMeA][dA]NLVSCA-NH2; thioether N-14) | 0.02
2 | Cc1cccc(C[C@@H]2NC(=O)[C@H](CC(=O)O)NC(=O)[C@H](Cc3ccc(OCC(=O)O)cc3)NC(=O)[C@H](CN)NC(=O)CSCC(C(N)=O)NC(=O)[C@H](CO)NC(=O)[C@H](C(C)C)NC(=O)[C@H](CC(C)C)NC(=O)[C@H](CC(N)=O)NC(=O)[C@@H](CC(C)C)NC(=O)[C@H](C)N(C)C(=O)[C@H](C(C)C)NC(=O)[C@H](Cc3ccc(-c4ccccc4)cc3)NC(=O)[C@H](CC(C)C)NC2=O)c1 (stereo partly drawn) [Compound 1597] ({CH2CO}-[Dap]Y(Carboxymethyl)D[Phe(3-Me)]L[Bip]V[NMeA][dL]NLVS[ξC]-NH2; thioether N-14) | 0.05
3 | CC(C)C[C@@H]1NC(=O)[C@H](CCN)NC(=O)[C@@H](CC(C)C)NC(=O)[C@H](C)N(C)C(=O)[C@H](Cc2cnc[nH]2)NC(=O)[C@H](Cc2ccc(-c3ccccc3)cc2)NC(=O)[C@H](C(C)C)NC(=O)[C@H](Cc2c[nH]c3ccccc23)NC(=O)[C@H](CC(=O)O)NC(=O)[C@H](Cc2ccc(O)cc2)NC(=O)[C@H](Cc2cccnc2)NC(=O)CSC[C@@H](C(=O)N[C@@H](C)C(N)=O)NC(=O)[C@H]([C@@H](C)O)NC(=O)[C@H](C(C)C)NC1=O [Compound 1374] ({CH2CO}-[3Pal]YDWV[Bip]H[NMeA][dL][Dab]LVTCA-NH2; thioether N-14) | 0.04
4 | CC[C@H](C)[C@@H]1NC(=O)[C@H](Cc2ccc(-c3ccccc3)cc2)NC(=O)[C@H](C(C)C)NC(=O)[C@H](Cc2c[nH]c3ccccc23)NC(=O)[C@H](CC(=O)O)NC(=O)[C@H](Cc2cccc(C#N)c2)NC(=O)[C@H](Cc2ccncc2)NC(=O)CSC[C@@H](C(=O)N[C@@H](C)C(N)=O)NC(=O)[C@H]([C@@H](C)O)NC(=O)[C@H](C(C)C)NC(=O)[C@H](CC(C)C)NC(=O)[C@H](CCN)NC(=O)[C@@H](CC(C)C)NC(=O)[C@H](C)N(C)C1=O [Compound 1407] ({CH2CO}-[4Pal][Phe(3-CN)]DWV[Bip]I[NMeA][dL][Dab]LVTCA-NH2; thioether N-14) | 0.04
5 | CC(C)C[C@@H]1NC(=O)[C@H](CCN)NC(=O)[C@@H](CC(C)C)NC(=O)[C@H](C)N(C)C(=O)[C@H](CCCNC(=N)N)NC(=O)[C@H](Cc2ccc(-c3ccccc3)cc2)NC(=O)[C@H](C(C)C)NC(=O)[C@H](Cc2c[nH]c3ccccc23)NC(=O)[C@H](CC(=O)O)NC(=O)[C@H](Cc2ccc(O)cc2)NC(=O)[C@H](CCN)NC(=O)CSC[C@@H](C(=O)N[C@@H](C)C(N)=O)NC(=O)[C@H]([C@@H](C)O)NC(=O)[C@H](C(C)C)NC1=O [Compound 1340] ({CH2CO}-[Dab]YDWV[Bip]R[NMeA][dL][Dab]LVTCA-NH2; thioether N-14) | 0.02
6 | Cc1cccc(C[C@@H]2NC(=O)[C@H](CC(=O)O)NC(=O)[C@H](Cc3ccc(OCC(=O)O)cc3)NC(=O)[C@H]([C@@H](C)O)NC(=O)CSC[C@@H](C(N)=O)NC(=O)[C@H](CC(N)=O)NC(=O)[C@H](C(C)C)NC(=O)[C@H](CC3CCCCC3)NC(=O)[C@H](CCN)NC(=O)[C@@H](CC(C)C)NC(=O)[C@H](C)N(C)C(=O)[C@H](Cc3ccc(OCC(=O)O)cc3)NC(=O)[C@H](Cc3ccc(-c4ccccc4)cc3)NC(=O)[C@H](Cc3ccc(OCC(=O)O)cc3)NC2=O)c1 [Compound 1669] ({CH2CO}-TY(Carboxymethyl)D[Phe(3-Me)]Y(Carboxymethyl)[Bip]Y(Carboxymethyl)[NMeA][dL][Dab][Cha]VNC-NH2; thioether N-14) | 0.06

Next, values leading:

Row | IC50 [µM] | SMILES
7 | 0.12 | CC(C)C[C@@H]1NC(=O)[C@H](Cc2c[nH]c3ccccc23)NC(=O)[C@H](CC(=O)O)NC(=O)[C@H](Cc2ccncc2)NC(=O)[C@H](Cc2ccc(OCC(=O)O)cc2)NC(=O)CSC[C@@H](C(=O)N[C@H](CC(N)=O)C(N)=O)NC(=O)[C@H](CO)NC(=O)[C@H](C(C)C)NC(=O)[C@H](CC2CCCCC2)NC(=O)[C@H](CCN)NC(=O)[C@@H](CC(C)C)NC(=O)[C@H](C)N(C)C(=O)[C@H](Cc2ccc(O)cc2)NC(=O)[C@H](Cc2ccc(-c3ccccc3)cc2)NC1=O [Compound 1907] ({CH2CO}-Y(Carboxymethyl)[4Pal]DWL[Bip]Y[NMeA][dL][Dab][Cha]VSC[dN]-NH2; thioether N-14)
8 | 0.76 | CC(C)C[C@@H]1NC(=O)[C@H](Cc2c[nH]c3ccccc23)NC(=O)[C@H](CC(=O)O)NC(=O)[C@H](Cc2ccc(O)cc2)NC(=O)[C@H](Cc2ccccc2)NC(=O)CSC[C@@H](C(=O)NCC(N)=O)NC(=O)[C@H](CO)NC(=O)[C@H](C(C)C)NC(=O)[C@H](CC(C)C)NC(=O)[C@H](CC(=O)O)NC(=O)[C@H](CCCCN)NC(=O)[C@H](C)N(C)C(=O)[C@H](C(C)C)NC(=O)[C@H](Cc2ccc(-c3ccccc3)cc2)NC1=O [Compound 1826] ({CH2CO}-FYDWL[Bip]V[NMeA]KDLVSCG-NH2; thioether N-14)
9 | 0.01 | C#CC[C@H](NC(=O)[C@@H](C)NC(=O)[C@@H]1CSCC(=O)N[C@@H](Cc2c[nH]cn2)C(=O)N[C@@H](Cc2ccc(OCC(=O)O)cc2)C(=O)N[C@@H](CC(=O)O)C(=O)N[C@@H](Cc2c[nH]c3ccccc23)C(=O)N[C@@H](C(C)C)C(=O)N[C@@H](Cc2ccc(-c3ccccc3)cc2)C(=O)N[C@@H](C(C)C)C(=O)N(C)[C@@H](C)C(=O)N[C@H](CC(C)C)C(=O)N[C@@H](CCN)C(=O)N[C@@H](CC2CCCCC2)C(=O)N[C@@H](C(C)(C)O)C(=O)N[C@@H](CO)C(=O)N1)C(N)=O [Compound 1942] ({CH2CO}-HY(Carboxymethyl)DWV[Bip]V[NMeA][dL][Dab][Cha][Val(3-OH)]SC[dA][Pra]-NH2; thioether N-14)
10 | 0.28 | CC(C)C[C@@H]1NC(=O)[C@H](Cc2c[nH]c3ccccc23)NC(=O)[C@H](CC(=O)O)NC(=O)[C@H](Cc2ccc(Cl)cc2Cl)NC(=O)[C@H](Cc2ccccc2)NC(=O)CSC[C@@H](C(=O)N[C@@H](C)C(N)=O)NC(=O)[C@H](CO)NC(=O)[C@H](C(C)C)NC(=O)[C@H](CC(C)C)NC(=O)[C@H](CC(N)=O)NC(=O)[C@@H](C)NC(=O)[C@H](C)N(C)C(=O)[C@H](C(C)C)NC(=O)[C@H](Cc2ccc(-c3ccccc3)cc2)NC1=O [Compound 1810] ({CH2CO}-F[Phe(2,4-Cl2)]DWL[Bip]V[NMeA][dA]NLVSCA-NH2; thioether N-14)
11 | 0.09 | CC(C)C[C@@H]1NC(=O)[C@H](Cc2c[nH]c3ccccc23)NC(=O)[C@H](CC(=O)O)NC(=O)[C@H](Cc2ccc(O)cc2)NC(=O)[C@H](Cc2ccccc2)NC(=O)CSC[C@@H](C(=O)NCC(N)=O)NC(=O)[C@H](CO)NC(=O)[C@H](C(C)C)NC(=O)[C@H](CC(C)C)NC(=O)[C@H](CC(N)=O)NC(=O)[C@@H](CCC(N)=O)NC(=O)[C@H](C)N(C)C(=O)[C@H](C(C)C)NC(=O)[C@H](Cc2ccc(-c3ccccc3)cc2)NC1=O [Compound 1784] ({CH2CO}-FYDWL[Bip]V[NMeA][dQ]NLVSCG-NH2; thioether N-14)
